Measurements: patent publication US20230338285A1, “PHARMACEUTICAL COMPOSITION COMPRISING HYDROXYCHLOROQUINE AND USES THEREOF” (priority 2020, published 2023)
Read-outs that look alike come from different tables or passages of the source.

Key:
[1] = tested on: 2019-nCoV; conditions: block of COVID-19 infection in vitro, Wang et al.; read-out: half-maximal effective concentration (EC50); cited from earlier work
[2] = tested on: SARS-CoV-2 clinically isolated strain; conditions: cited from earlier work; for EC50: Vero cells, Yao et al.
[3] = Aerosol particle size distribution (Aerodynamic Particle Sizer); assay type: physicochemical; conditions: thermal aerosol from 100 mg/mL in propylene glycol, heater 200-220° C.
Experimental: A liquid formulation containing a solution of hydroxychloroquine in propylene glycol at a concentration of 100 mg/mL was prepared and filled into a consumable cartridge.
The liquid formulation was nebulized using a device comprising a mesh heating element as described in WO2018153608 (A1). Aerosol from the liquid formulation was generated by thermal aerosolization. The temperature of the heater was maintained between 200-220° C. A programmable dual syringe pump (PDSP) with a simulated inhalation regimen of 55 mL delivered in 3 sec puff duration and 30 sec interval (including the subsequent discharge from the pump during piston down stroke) was used to transfer the aerosol. The PDSP pump was attached to a SUPER SESI (Fossilion Technologies, Madrid, SP) interfaced with Q Exactive HF system (Thermo Fisher Scientific, Waltham, MA, USA) as shown in FIG. 2.
The particle size distribution of the aerosols was measured using the TSI 3321 Aerodynamic Particle Sizer (APS, TSI Incorporated, Shoreview, MN, USA). To reach the operational flowrate of 5 L/min and to stay within the limits of detection concerning large particle number densities obtained in the experiment, the […] was connected with a 3302A Aerosol Diluter (TSI Incorporated), upstream of the APS using a 30 cm conductive tube with a 1-cm inner diameter (FIG. 3). […]

[4] = Thermal decomposition during thermal aerosolization (LC-HR-MS); assay type: physicochemical; conditions: LC-HR-MS of aerosol trapped on Cambridge pad filter
Experimental: Using the described aerosol generation and characterization setup, the aerosol produced from the device was pushed through the Cambridge filter pad connected to an impinger filled with 5 mL of ethanol to assess the transfer amount of hydroxychloroquine from the liquid to the aerosol. Compound extraction from the Cambridge filter pads was performed by adding 5 mL of ethanol from the impinger and another 5 mL of fresh ethanol to the filter pad. The two fractions were combined (total volume of 10 mL) for quantification. Chemical analyses for drug solubility and transfer rate assessment were performed by liquid chromatography equipped with a HILIC BEH amide column (50 × 3 mm, 1.7 µm, Waters, Manchester, UK) coupled to high resolution accurate mass spectrometry (Vanquish Duo - Q Exactive HF system, LC-HR-MS, ThermoFisher Scientific, Waltham, MA, USA). Mobile phases were composed of acetonitrile containing 0.1% formic acid and 10 mM ammonium formate. Samples were diluted to fit the calibration curve built from 9-calibrant levels (5-100 ng/mL). A volume of 5 µL diluted solution was injected. Mass spectrometry detection was realized in positive electrospray ionization with a mass resolution of 60,000 by scanning full scan mass from m/z 50-350.

[5] = Solubility in propylene glycol and solvent mixtures by LC-HR-MS; assay type: physicochemical; conditions: for Accuracy (ratio of measured concentration to calculated concentration): propylene glycol, 40° C.
Experimental: Chloroquine and hydroxychloroquine were synthesized according to published procedures at WuXi AppTec (Wuhan, China). […] The solubility of HCQ in propylene glycol (PG) was evaluated by preparing formulations at various concentrations and assessing their solubility by performing liquid chromatography-high resolution-mass spectrometry (LC-HR-MS). The solubility of HCQ in PG was measured at 40° C. and atmospheric pressure (~100 kPa) -Table 1a.
The solubility of HCQ in different solvent mixtures comprising propylene glycol (PG); glycerol and/or water was evaluated by preparing formulations and assessing the solubility of HCQ by performing liquid chromatography-high resolution-mass spectrometry (LC-HR-MS) as shown in Table 1b.

Molecule: CCN(CC)CCCC(C)Nc1ccnc2cc(Cl)ccc12 (centres unmarked) [chloroquine]
- EC50 [1]: 1.13 µM

Molecule: hydroxychloroquine
- EC50 ([2]; 24 hours): 6.14 µM
- EC50 ([2]; 48 hours): 0.72 µM
- in vitro EC50 ([2]; value from Yao et al.): 0.242 µg/mL
- in vitro EC90 ([2]; value from Yao et al.): 1.68 µg/mL
- median aerodynamic diameter of aerosol particles [3]: 1.3 µm
- decomposition during thermal aerosolization [4]: no decomposition
- Solubility ([5]; Mix 1: propylene glycol 75%, glycerol 20%, water 5%): 151 mg/mL
- Solubility ([5]; Mix 2: propylene glycol 75%, glycerol 15%, water 10%): 141 mg/mL
- Solubility ([5]; Mix 3: propylene glycol 45%, glycerol 45%, water 10%): 42 mg/mL
- Solubility ([5]; Mix 4: propylene glycol 90%, glycerol 10%, water 0%): 150 mg/mL
- Solubility ([5]; Mix 5: propylene glycol 90%, glycerol 0%, water 10%): 324 mg/mL
- Solubility ([5]; Mix 6: propylene glycol 85%, glycerol 0%, water 15%): 261 mg/mL
- Solubility ([5]; Mix 7: propylene glycol 95%, glycerol 0%, water 5%): 322 mg/mL
- Solubility ([5]; Mix 8: propylene glycol 100, glycerol 0%, water 0%): 139 mg/mL
- Accuracy (ratio of measured concentration to calculated concentration) ([5]; calculated concentration 1.3 mg/mL): 78%
- Accuracy (ratio of measured concentration to calculated concentration) ([5]; calculated concentration 10.2 mg/mL): 103%
- Accuracy (ratio of measured concentration to calculated concentration) ([5]; calculated concentration 20.9 mg/mL): 104%
- Accuracy (ratio of measured concentration to calculated concentration) ([5]; calculated concentration 40.6 mg/mL): 92%
- Accuracy (ratio of measured concentration to calculated concentration) ([5]; calculated concentration 100.6 mg/mL): 96%
